# Reference: US7959956B2, “Method for treating diabetic complications” (Korea Institute of Oriental Medicine, Ltd., priority 2004, dated 2011)
# How the values were obtained:
# [1] = tested on: production of advanced glycation endproducts (bovine serum albumin + sugar mixture); experiment: Inhibition of production of advanced glycation endproducts (BSA + fructose/glucose, fluorescence); assay type: biochemical
# Method: As a protein source, bovine serum albumin (hereinafter, referred to as “BSA”; Sigma, USA) was used. BSA was dissolved in 50 mM phosphate buffer (pH 7.4) to a concentration of 10 mg/ml.
# As a sugar source, a mixture of 0.1 M fructose and 0.1 M glucose was used.
# This sugar mixture was added to the prepared BSA solution, for use in tests.
# The herbal extract mixture prepared in Example 2 was dissolved in 15% Tween80, and this solution was added to the BSA-sugar mixture and cultured at 37° C. for 30 days. At this time, 0.02% sodium azide was used as an antibacterial agent.
# As a control group, a culture consisting of BSA and the sugar mixture was cultured, and as blanks to the control and test groups, the materials for the test group and the materials for the control group were used after preparation without incubation.
# In order to reduce errors to the lowest possible extent, 4 samples for each group were used. Just before culturing, the samples were filled with nitrogen gas (99.999% purity) in order to prevent them being contaminated. After 30 days, the content of advanced glycation endproducts in the culture media was analyzed. The advanced glycation endproducts are fluorescent, show a brown color, are crosslinkable, and have ligands which can be recognized by cellular membrane receptors. The amount of the advanced glycation endproducts with such properties was measured with a spectrophotometer (excitation at 350 nm and release at 450 nm) so as to determine the inhibition of production of the advanced glycation endproducts.
# The inhibition (%) of production of advanced glycation endproducts was calculated according to the following equation: Inhibition (%) of production=100−[(fluorescent intensity of test group−fluorescent intensity of blank to test group)/(fluorescent intensity of control group−fluorescent intensity of blank to control group)]×100
# The part (1) of this Example was repeated except that extract from each of Euphorbiae radix, gingered Magnolia bark, parched Puerariae radix and Glycyrrhizae radix was dissolved in 15% Tween80 and cultured for 90 days.
# Magnolol was dissolved in distilled water at concentrations of 3.33 μg/ml, 6.66 μg/ml, 13.32 μg/ml and 26.6 μg/ml, and then cultured for 37° C. for 30 days in the same manner as in the above part (1).
# aminoguanidine, a positive control group, was tested in the same manner as in the above part (1) except that aminoguanidine was dissolved in distilled water at selected concentrations and cultured for 30 days and 90 days.
# [2] = tested on: streptozotocin diabetes-induced SD rats; experiment: Streptozotocin diabetic rats: body weight, feed and water intake; assay type: in vivo, rat
# Source text: Four-week-old SD male rats weighing 120-140 g were housed in cages at one animal for each cage and allowed for access to general solid food and water while adapting the animals to an animal room of this institute (the applicant).
# (§1) The test animals were divided into the following four groups: (1) a normal group administered with carboxymethyl cellulose (NC+CMC); (2) a diabetes-induced group administered with carboxymethylcellulose (DC+CMC); (3) a diabetes-induced group administered with the herbal extract mixture (DC+HMP); (4) and a diabetes-induced group administered with a positive control (Eparlestat) (DC+S11). The diabetes-induced groups each consisted of 9-10 animals, and the normal group consisted of 5-6 animals. The body weights of the animals were similar between the test groups.
# (§2) The test animals were adapted to the animal room and then fasted overnight. Streptozotocin was dissolved in 0.1 M citrate buffer (pH 4.5), and just then, injected into the abdominal cavities of the fasted animals at a dose of 60 mg/kg. At 2 days after administering the streptozotocin solution, tail vein blood was sampled from the animals and examined for blood glucose level. Rats having a blood glucose level of more than […] were determined to be diabetes-induced rats.
# To examine a therapeutic effect against chronic diabetic complications, the rats was continued to maintain in diabetic conditions for 30 days. From day 31, the rats were administered with the drugs for 8 weeks.
# Since the herbal extract mixture (HMP) and Epalrestat (S11) used in the tests are insoluble in water, they were dissolved in 1% carboxymethylcellulose before use. The normal group was administered with carboxylmethylcellulose so as to eliminate an effect caused by carboxylmethylcellulose.
# (§3) For the two diabetes-induced groups other than the normal group, each of 1 g/kg of the herbal extract mixture (HMP) and 25 mg/kg of Epalrestat (S11) was dissolved in 1% CMC and administered orally to the rats by a sonde daily for 8 weeks.
# After administering the samples during the administration period, the test animals were fasted for at least 15 hours at one day before autopsy, and then measured for body weight.
# The body weight was measured every day, the feed intake was measured one time a week, and the water intake was measured every day.
# [3] = tested on: streptozotocin diabetes-induced SD rats; experiment: Streptozotocin diabetic rats: organ weight; assay type: in vivo, rat; conditions: oral daily 8 weeks
# Source text: as §1, §2, §3
# One day before autopsy, the test animals were fasted for at least 15 hours and then measured for body weight. Then, the animals were anesthetized with ethyl ether, from which blood was collected via the abdominal aorta. Some of the collected blood was treated with heparin, and some of whole blood was centrifuged at 3,000 rpm and 4° C. for 15 minutes. From each of the blood samples, plasma was isolated and stored at −80° C. before use in data analysis.
# The kidneys of the animals were removed after washing by perfusion and measured for weight. Next, the kidneys were separated into cortex and medulla, which were rapidly cooled and stored at −80° C. In addition, the liver, lungs, pancreas, spleen and heart were separated and measured for weight.
# [4] = tested on: streptozotocin diabetes-induced SD rats; experiment: Streptozotocin diabetic rats: anti-cataract effect (eye lens opacity); assay type: in vivo, rat; conditions: for Eye lens's opacity (%): mean
# Source text: as §1, §2, §3
# From the eyeballs removed under a microscope, the eye lenses were separated and transferred onto 24-well plates each containing 2 ml of a saline solution. Then, the eye lenses were photographed with a digital camera. The opacity of the eye lenses was analyzed by the use of an imaging system program.
# The eye lenses were photographed with a camera and measured for weight. Then, the eye lenses were placed in phosphate buffer (pH 6.9) and homogenized at 4° C. For use in the measurement of enzymatic activity, some of the homogenized solution was centrifuged at 3,000 rpm for 20 minutes, and the supernatant was collected and stored at −80° C. For use in the measurement of content of sorbitol, etc., the remaining homogenized solution was added with ZnSO4 and NaOH so as to remove protein, and centrifuged at 3,000 rpm for 20 minutes, and the supernatant was collected and stored at −80° C.
# The results of visual observation for the eyeballs are shown in FIG. 9, and the results of camera observation for the eye lenses are shown in FIG. 10.
# [5] = tested on: streptozotocin diabetes-induced SD rats; experiment: Streptozotocin diabetic rats: biochemical factors in serum; assay type: in vivo, rat; conditions: oral daily 8 weeks; for Glucose level: plasma
# Source text: as §1, §2, §3
# At two-week intervals up to before autopsy, blood was taken from the orbital veins and measured for plasma glucose level with a glucose kit. The plasma glucose level was measured at 500 nm UV by a glucose oxidase method.
# BUN was determined by measuring absorbance at 580 nm by a urease-indophenol method.
# Triglyceride content was quantified by measuring absorbance at 550 nm by an enzymatic method (POD).
# Total cholesterol level was determined by measuring absorbance at 500 nm by an enzymatic method.
# Creatinine was determined by measuring absorbance at 515 nm by a modified Jaffe's method.
# Protein in serum was determined by BCA assay. Serum was reacted with a bicinchonicic acid solution of bicinchonicic acid, Na2CO3, NaHCO3 and C4H4O6Na2.2H2O in 0.1N NaOH and a 4% CuSO4.5H2O solution and then measured for absorbance at 562 nm.
# [6] = diabetes-induced rats, oral daily 8 weeks
compound,measurement,setting,value
"N=C(N)NN [Aminoguanidine, aminoguanidine]",Inhibition (%) of production of advanced glycation endproducts,"[1]; bovine, 30 days, 27.5 μg/ml, pH 7.4",45.78 ± 2.400%
same,Inhibition (%) of production of advanced glycation endproducts,"[1]; bovine, 30 days, 55 μg/ml, pH 7.4",55.43 ± 4.000%
same,Inhibition (%) of production of advanced glycation endproducts,"[1]; bovine, 30 days, 110 μg/ml, pH 7.4",73.52 ± 1.750%
same,Inhibition (%) of production of advanced glycation endproducts,"[1]; bovine, 30 days, 550 μg/ml, pH 7.4",96.41 ± 2.200%
same,"IC50 (μg/ml), inhibition of production of advanced glycation endproducts","[1]; bovine, 30 days, pH 7.4",34.90 µg/mL
same,Inhibition (%) of production of advanced glycation endproducts,"[1]; bovine, 90 days, 27.5 μg/ml, pH 7.4",39.647 ± 3.406%
same,Inhibition (%) of production of advanced glycation endproducts,"[1]; bovine, 90 days, 110 μg/ml, pH 7.4",65.714 ± 5.394%
same,"IC50 (μg/ml), inhibition of production of advanced glycation endproducts","[1]; bovine, 90 days, pH 7.4",30.80 µg/mL
CC(/C=C1\SC(=S)N(CC(=O)O)C1=O)=C\c1ccccc1 [Epalrestat],"Body weight, early stage","[2]; oral daily 8 weeks (HMP 1 g/kg, S11 25 mg/kg), early stage",154.03 ± 45.46 g
same,"Body weight, end stage","[2]; oral daily 8 weeks (HMP 1 g/kg, S11 25 mg/kg), end stage",283.24 ± 42.60 g
same,Heart absolute weight,[3],0.95 ± 0.11 g
same,Heart relative weight (%),[3],0.34 ± 0.03 %
same,Kidneys absolute weight,[3],3.18 ± 0.30 g
same,Kidneys relative weight (%),[3],1.14 ± 0.11 %
same,Liver absolute weight,[3],11.63 ± 1.08 g
same,Liver relative weight (%),[3],4.15 ± 0.40 %
same,Lungs absolute weight,[3],1.55 ± 0.13 g
same,Lungs relative weight (%),[3],0.55 ± 0.06 %
same,Pancreas absolute weight,[3],0.86 ± 0.11 g
same,Pancreas relative weight (%),[3],0.31 ± 0.05 %
same,Spleen absolute weight,[3],0.54 ± 0.09 g
same,Spleen relative weight (%),[3],0.19 ± 0.02%
same,Eye lens's opacity (20 pixels/m^2),[4]; [6],134.04 ± 45.00 20 pixels/m^2
same,Eye lens's opacity (%),"[4]; diabetes-induced rats, oral daily 8 weeks, listed as S11",37.38 ± 13.56 %
same,BUN,[5],23.60 ± 5.15 mg/dL
same,Creatinin,[5],1.22 ± 0.16 mg/dL
same,Total cholesterol,[5],59.50 ± 13.88 mg/dL
same,Triglyceride,[5],46.18 ± 8.26 mg/dL
same,Glucose level,[5],197.94 mg/dL
same,Glucose level,[5]; listed as S11,197.94 ± 76.66 mg/dL
same,Protein,"[5]; serum, BCA assay",10.79 ± 0.85 µg/µL
CC(/C=C1\SC(=S)N(CC(=O)O)C1=O)=C\c1ccccc1 [Epalrestat (S11)],Feed intake compared to diabetes-induced group,[2]; oral daily 8 weeks,more feed than that of the diabetes-induced group
same,Water intake compared to diabetes-induced group,[2]; oral daily 8 weeks,more water than that of the diabetes-induced group
same,Increase in body weight,"[2]; oral daily 8 weeks (HMP 1 g/kg, S11 25 mg/kg)",129.21 g
same,Eye lens's opacity (%),[4]; [6],37.38±13.56%
same,Animals with cataract symptoms in both eyeballs on the day of autopsy,"[4]; visual observation of eyeballs, FIG. 9",four of seven
"C=CCc1ccc(O)c(-c2cc(CC=C)ccc2O)c1 [Magnolol, magnolol]",Inhibition (%) of production of advanced glycation endproducts,"[1]; 3.33 μg/ml, cultured for 30 days",36.36 ± 1.61%
same,Inhibition (%) of production of advanced glycation endproducts,"[1]; 6.66 μg/ml, cultured for 30 days",55.75 ± 2.11%
same,Inhibition (%) of production of advanced glycation endproducts,"[1]; 13.32 μg/ml, cultured for 30 days",77.05 ± 1.70%
same,Inhibition (%) of production of advanced glycation endproducts,"[1]; 26.64 μg/ml, cultured for 30 days",100%
same,"IC50 (μg/ml), inhibition of production of advanced glycation endproducts","[1]; cultured for 30 days, 37° C.",5.36 µg/mL
